Experimental data published in patent publication US20220132857A1, “Disinfecting Composition and Related Methods” (priority 2020, published 2022).
Like-named read-outs stand apart in the source and are kept apart here.

Assays:
Staphylococcus Aureus = details: within 5 minutes of contact time; cited from earlier work
Pseudomonas Aeruginosa = details: within 5 minutes of contact time; cited from earlier work
[1] = test system: residual ATP (ATP-containing contamination including bacteria); test: ATP bioluminescence disinfection efficacy on polyester fabric contaminated with collected water; details: 5 ml dropwise, after 5 minutes, before treatment Area 1: 243, Area 2: 291
Source text: Bioluminescence is a practical and simple method used to quickly assess the bio-contamination of surfaces. The method has been developed based on the biochemical adenosine triphosphate (“ATP”), which is the energy molecule of all the living organisms, luciferin/luciferase, and oxygen. The reaction results in a light-emitting decay which can be detected and related to the amount of ATP.
The luminometer (in conjunction with ATP swabs) uses bioluminescence to detect residual ATP as an indicator of surface cleanliness. The presence of ATP on a surface indicates incomplete cleaning and the presence of ATP-containing contamination including bacteria.
Test results are presented as Relative Light Units (“RLU”). RLU is the unit of measurement used in bioluminescence. When a test swab is activated, a bioluminescent reaction occurs, generating light output. Luminometers measure and quantify that light with an RLU output. […]
The relationship between the amount of ATP on the sample and the RLU result reading on the luminometer is directly proportional to the amount of ATP collected from the sample. A high RLU reading indicates a large amount of ATP at the test location. […]
Cleaning properly results in less ATP at the location. Less ATP results in less light output during the bioluminescent reaction and consequently, a lower RLU reading. […]

[2] = test system: residual ATP (ATP-containing contamination including bacteria); details: granite tile, 3 ml soaked through paper towel, after 5 minutes; before treatment Area 1: 1057, Area 2: 998
Source text: Therefore, the surfaces to be evaluated had to be thoroughly cleaned and tested for contamination prior to commencing the test.
Test results are presented as Relative Light Units (“RLU”). RLU is the unit of measurement used in bioluminescence. When a test swab is activated, a bioluminescent reaction occurs, generating light output. Luminometers measure and quantify that light with an RLU output.
A high RLU reading indicates a large amount of ATP at the test location. This in turn indicates improper cleaning and the presence of contaminants.
Cleaning properly results in less ATP at the location. Less ATP results in less light output during the bioluminescent reaction and consequently, a lower RLU reading.
A granite floor tile was selected and thoroughly disinfected with hot water and a cocktail of disinfectants. It was then tested for ATP until the readings consistently indicated RLU of 0-2 which represented a surface free of ATP within the margins of error.
A sample of seemingly contaminated water was collected from a pond and left stagnant for solid settlement for 3 days.
The granite tile was covered with a paper towel and the water was added to the towel in a dropwise manner until it was completely soaked. After a few hours, soaking was repeated, and the specimen was left to dry overnight. […]

Compound | reduction against Staphylococcus Aureus (Staphylococcus Aureus) [Log] | reduction against Pseudomonas Aeruginosa (Pseudomonas Aeruginosa) [Log] | ATP reading after treatment [1] [RLU] | ATP reading after treatment [2] [RLU]
OO [0.6 wt. % hydrogen peroxide solution, hydrogen peroxide] | ~1 | < 1 |  | 
OO [6 weight percent hydrogen peroxide solution] | ~3 | < 2 |  | 
CC(C)O [commercial 70% Iso-Propyl Alcohol, Iso-Propyl Alcohol] |  |  | 22 | 
OO [hydrogen peroxide with no other additive, hydrogen peroxide] |  |  |  | 82
